Reference: patent US6117888A, “Thrombin inhibitors” (Merck & Co., Inc., priority 1999, dated 2000)
Read-outs that look alike come from different tables or passages of the source.

Target: human α-thrombin (Homo sapiens, UniProt P00734)
Assay: In vitro assay for determining proteinase inhibition, human α-thrombin
Assay type: biochemical
Procedure: The assays were carried out at 25° C. in 0.05 M TRIS buffer pH 7.4, 0.15 M NaCl, 0.1% PEG. Trypsin assays also contained 1 mM CaCl2.
Concentrations of stock solutions of Z-GPR-afc were determined from measurements of absorbance at 380 nm of the 7-amino-4-trifluoromethyl coumarin produced upon complete hydrolysis of an aliquot of the stock solution by thrombin.
Times required to achieve equilibration between enzyme and inhibitor were determined in control experiments. Initial velocities of product formation in the absence (Vo) or presence of inhibitor (Vi) were measured. Assuming competitive inhibition, and that unity is negligible compared Km /[S], […] (where [S], [I], and e respectively represent the total concentrations, of substrate, inhibitor and enzyme), the equilibrium constant (Ki) for dissociation of the inhibitor from the enzyme can be obtained from the dependence of Vo /Vi on [I] shown in equation 1.

[1] = thrombin, 25° C., 0.05 M TRIS buffer pH 7.4, 0.15 M NaCl, 0.1% PEG, read-out: Inhibitory activity, Ki

Structure (SMILES) | Ki [1] [nM] | Ki [nM]
Cc1nc(N)ccc1CNC(=O)Cn1c(C)cc(S(=O)(=O)N2CCCC2)c(N)c1=O | < 5 | –
Cc1nc(N)ccc1CNC(=O)Cn1c(C)cc2c(c1=O)NCCS2(=O)=O | > 5 | –
Cc1nc(N)ccc1CNC(=O)Cn1c(C)cc2c(c1=O)NCN(CC1CC1)S2(=O)=O | – | < 5

The next lines start with the values.

Ki [1] [nM] | Ki [nM] | Structure (SMILES)
> 5 | – | Cc1nc(N)ccc1CNC(=O)Cn1c(C)cc2c(c1=O)NCC(c1ccccc1)S2(=O)=O (centres unmarked)
– | < 5 | Cc1nc(N)ccc1CNC(=O)Cn1c(C)cc(S(=O)(=O)NCC2CCC2)c(N)c1=O
